Key:
Septoria tritici = assay: Example D: in vivo preventive test on Septoria tritici (leaf spot on wheat)
Protocol: Example D: In Vivo Preventive Test on Septoria tritici (Leaf Spot on Wheat)
(§1) • Solvent: 5% by volume of dimethyl sulfoxide • 10% by volume of acetone • Emulsifier: 1 μL of Tween® 80 per mg of active ingredient
The active compounds were made soluble and homogenized in a mixture of dimethyl sulfoxide/acetone//Tween® 80 and then diluted in water to the desired concentration.
The young plants of wheat were treated by spraying the active compound prepared as described above. Control plants were treated only with an aqueous solution of acetone/dimethyl sulfoxide/Tween® 80.
After 24 hours, the plants were contaminated by spraying the leaves with an aqueous suspension of Septoria tritici spores. The contaminated wheat plants were incubated for 72 hours at 18° C. and at 100% relative humidity and then for 21 days at 20° C. and at 90% relative humidity.
The test was evaluated 24 days after the inoculation. 0% means an efficacy which corresponds to that of the control plants while an efficacy of 100% means that no disease is observed.

Pyricularia oryzae = assay: microbe, parasite or virus in culture; type: cell-based; conditions: for Efficacy: inhibition of fungal growth, liquid culture
Botrytis cinerea = assay: Example B: in vivo preventive test on Botrytis cinerea (grey mould); conditions: evaluated 4 to 5 days after inoculation
Protocol: Example B: In Vivo Preventive Test on Botrytis cinerea (Grey Mould)
as §1
The tested compounds were made soluble and homogenized in a mixture of dimethyl sulfoxide/acetone//Tween® 80 and then diluted in water to the desired concentration.
The young plants of gherkin were treated by spraying the tested compounds prepared as described above. Control plants were treated only with an aqueous solution of acetone/dimethyl sulfoxide/Tween® 80.
After 24 hours, the plants were contaminated by spraying the leaves with an aqueous suspension of Botrytis cinerea spores. The contaminated gherkin plants were incubated for 4 to 5 days at 17° C. and at 90% relative humidity.
The test was evaluated 4 to 5 days after the inoculation. 0% means an efficacy which corresponds to that of the control plants while an efficacy of 100% means that no disease is observed.

[1] = log P by HPLC on reversed-phase column (C18), EEC Directive 79/831 Annex V.A8; type: physicochemical
Summary of the method: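 Retention time on C18 reversed-phase HPLC at 40 °C, gradient 10% to 95% acetonitrile with either 0.1% aqueous formic acid (Method A) or 0.001 molar ammonium acetate (Method B). Calibrated with unbranched alkan-2-ones (C3–C16) of known log P by linear interpolation between successive alkanones.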

[2] = dose 0.06 ppm, 5 days incubation
[3] = dose 0.25 ppm, 5 days incubation
[4] = 500 ppm of active ingredient, gherkin plants, preventive
[5] = dose 500 ppm, preventive spray on gherkin plants
[6] = 4 ppm of active ingredient, 5 days incubation
[7] = Method A: 40° C., 0.1% aqueous formic acid and acetonitrile

| SMILES | Efficacy (Septoria tritici; 500 ppm of active ingredient, evaluated 24 days after inoculation) | Efficacy (Septoria tritici; Table D, dose 500 ppm) | Efficacy (Pyricularia oryzae; [2]) | Efficacy (Pyricularia oryzae; [3]) | efficacy (inhibition of fungal growth) (Pyricularia oryzae; dose of 0.25 ppm or 0.06 ppm) | Efficacy (Botrytis cinerea; [4]) | Efficacy (Botrytis cinerea; [5]) | Efficacy (Pyricularia oryzae; 1 ppm, 5 days incubation) | efficacy (inhibition of fungal growth) (Pyricularia oryzae; [6]) | Efficacy (Pyricularia oryzae; 4 ppm, 5 days incubation) | Efficacy (Pyricularia oryzae; 20 ppm, 5 days incubation) | logP [1, 7] | logP ([1]; Method B: 40° C., 0.001 molar ammonium acetate solution in water and acetonitrile) |
| --- | --- | --- | --- | --- | --- | --- | --- | --- | --- | --- | --- | --- | --- |
| Cc1nc2c(F)c(F)ccc2cc1Oc1ccccc1C[Si](C)(C)C [CMP1, 7,8-difluoro-2-methyl-3-{2-[(trimethylsilyl)methyl]phenoxy}quinoline, reference compound] | no protection | 0% | 1% | 56% | much lower efficacy |  |  |  |  |  |  |  |  |
| Cc1cc(Oc2cccc(F)c2[Si](C)(C)C)c2ccc(F)c(F)c2n1 [CMP3, 7,8-difluoro-4-[3-fluoro-2-(trimethylsilyl)phenoxy]-2-methylquinoline, reference compound] |  |  |  |  |  | no efficacy | 0% | 0% | much lower efficacy | 25% | 96% |  |  |
| C[Si](C)(C)c1c(F)cccc1Oc1ccnc2cccnc12 [CMP4, 4-[3-fluoro-2-(trimethylsilyl)-phenoxy]-1,5-naphthyridine, reference compound] |  |  |  |  |  | no efficacy | 0% | 0% | much lower efficacy | 11% | 44% |  |  |
| Cc1nc2c(F)c(F)ccc2cc1Oc1ccccc1[Si](C)(C)C [I.024] |  | 81% | 89% | 96% | at least 80% |  |  |  |  |  |  | 6.01 |  |
| Cc1nc2c(F)c(F)ccc2cc1Oc1cccc(F)c1[Si](C)(C)C [I.027] |  |  |  |  |  |  | 92% | 85% |  | 94% | 100% |  | 5.54 |
| C[Si](C)(C)c1c(F)cccc1Oc1cnc2cccnc2c1 [I.116] |  |  |  |  |  |  | 73% | 90% |  | 100% | 100% | 4.15 |  |

— patent US10683311B2 (priority 2015, dated 2020)
